Source: patent publication US20020103228A1, “Composition and method for use of pyridinium derivatives in cosmetic and therapeutic applications” (TORRENT PHARMACEUTICALS LTD., priority 1999, published 2002)

Key:
AGE-BSA = biological target: T1, AGE-BSA (Bos taurus, UniProt P02769); assay: In-vitro AGE breaking activity by ELISA; type: biochemical, Bovine; settings: 37° C., 24 hours
T1 construct: Bovine serum albumin (fraction V) (BSA); from tissue; host or cells: bovine serum (fraction V); glycated in house with 1.6 M glucose at 37 °C for 16 weeks
Description: AGE breaking activity has been confirmed by the screening procedure as mentioned below:
Methods of experiment: Elisa (Enzyme Linked Immunosorbent Assay)
160 mg/ml of protein, bovine serum albumin, BSA and 1.6M glucose sugar were dissolved in phosphate buffered saline, PBS. Sodium azide was added at 0.02% concentration as a preservative. The solution was filtered asceptically through a […] filter and kept for aging at 37° C. for 16 weeks. After 16 weeks the solution was dialyzed against PBS, aliquoted and stored at −20° C.
To determine the AGE breaking activity, 10 μg/ml of the 16 weeks AGE-BSA was incubated with different concentrations of the test compounds at 37° C. for 24 hours and AGE breaking activity of the test compounds by ELISA was determined.
ELISA was performed as follows
1. Different concentrations of 16 weeks AGE-BSA were coated on a microtiter plate as standard. Each concentration is coated in triplicates.
2. The test samples were coated on microtiter plate at a concentration of 5 ng to 20 ng per well in triplicates
3. The plate was incubated at 37° C. for one hour.
4. After incubation the plate was washed with PBST (PBS with 0.05% Tween 20).
5. Blocking with 5% skimmed milk in PBS at 37° C. for one hour was done.
6. The plate was washed with PBST.
7. Primary antibody against AGE-BSA was added and the plate is incubated at 37° C. for one hour.
8. The plate was washed with PBST
9. Secondary antibody anti rabbit HRPO (Horse-Radish Per Oxidase) conjugate was added and the plate is incubated at 37° C. for one hour.
10. The plate was washed with PBST.
11. Colour development with OPD (orthophenylenediamine dihydrochloride) and hydrogen peroxide was done.
12. OD (optical density) at (450 nm reading-620 nm reading) was measured after incubation at 37° C. for 15 minutes with Microplate ELISA Reader
The breaker activity of the compounds were determined by the following formula: [formula]
OD450-620Control=Absorbance of 20 ng AGE-BSA after incubation at 37° C. for 24 hours without test compound
OD450-620Test=Absorbance of 20 ng AGE-BSA after incubation at 37° C. for 24 hours with required concentration of test compound
Using specific examples, the % AGE breaking activity was calculated and recorded in Table 2.

[1] = Free radical scavenging activity on ABTS radical cation; type: biochemical
Description: This method measures the relative ability of free radical scavenging substances to scavenge the ABTS^.+ i.e. 2,2-Azino-bis-(3-ethyl benzo thiazoline-6-sulfonate) radical cation as compared to a standard amount of standard or free radical scavengers antioxidants. Incubation of ABTS with Peroxidase (metmyoglobin) and hydrogen peroxide results in the production of radical cation ABTS^.+. This species is blue-green in colour and can be detected at 730 nm. Antioxidants or free radical scavengers in the added sample that causes suppression of the color to a degree that is proportional to their concentration.
Preparation of Buffer Solutions
A. Phosphate Citrate Buffer (pH 5.0). 48.5 ml of 0.1M citric acid with sufficient 0.2M disodium hydrogen phosphate to produce 100 ml.
B. Phosphate Buffer Saline (PBS): Dissolve 40.0 g of NaCl, 1.0 g of KCl, 1.0 g of KH2PO4 and 3.05 g of Na2HPO4 in 1 liter milli-Q water. Dilute 200 ml of above solution to 1 liter with milli-Q water (pH 7.4-7.6).
C. 3 μM stock solution of Peroxidase was prepared in phosphate buffer saline pH 7.4(PBS).
D. 1.08 mM stock solution of Hydrogen peroxide was prepared in phosphate buffer saline pH 7.4 (PBS).
Preparation of ABTS Stock Solution
1 tablet (10 mg) was dissolved in phosphate citrate buffer (pH 5.0).
Preparation of ABTS Working Solution
5.0 ml of ABTS stock solution was diluted with PBS to 20 ml.
Preparation of Horse Radish Peroxidase Stock Solution
320 μg of the enzyme was dissolved in 2.5 ml of PBS.
Preparation of Hydrogen Peroxide (1.08 mM) Solution
12 μl of Hydrogen Peroxide (30% w/v) was diluted to 100 ml with PBS. […]
Preparation of ABTS Radical Stock Solution
To 18 ml of ABTS stock solution, 100 μl of Horseradish Peroxidase stock solution was added.
As soon as 1.5 ml of hydrogen peroxide solution was added to the above solution, blue-green colour of the ABTS radicals appeared. This solution was incubated at 30° C. for 30 min.
Preparation of Control Solution
980 μl of ABTS radical stock solution was added to an eppendorf tube. To it was added 100 μl of various PBS solution.
Preparation of test Solution
980 μl of ABTS radical stock solutions were added to different eppendorf tubes. To it were added 100 μl of various concentrations of drug solution.
Measurement of Absorbance (O.D)
The absorbance of control and test samples was recorded immediately at 730 nm taking PBS as blank.
Calculation: The percent antioxidant activity was calculated according to the formula. % Antioxidant activity=[O.D of test sample/O.D of control*100]−100.

T1 sequence (P02769 25-607): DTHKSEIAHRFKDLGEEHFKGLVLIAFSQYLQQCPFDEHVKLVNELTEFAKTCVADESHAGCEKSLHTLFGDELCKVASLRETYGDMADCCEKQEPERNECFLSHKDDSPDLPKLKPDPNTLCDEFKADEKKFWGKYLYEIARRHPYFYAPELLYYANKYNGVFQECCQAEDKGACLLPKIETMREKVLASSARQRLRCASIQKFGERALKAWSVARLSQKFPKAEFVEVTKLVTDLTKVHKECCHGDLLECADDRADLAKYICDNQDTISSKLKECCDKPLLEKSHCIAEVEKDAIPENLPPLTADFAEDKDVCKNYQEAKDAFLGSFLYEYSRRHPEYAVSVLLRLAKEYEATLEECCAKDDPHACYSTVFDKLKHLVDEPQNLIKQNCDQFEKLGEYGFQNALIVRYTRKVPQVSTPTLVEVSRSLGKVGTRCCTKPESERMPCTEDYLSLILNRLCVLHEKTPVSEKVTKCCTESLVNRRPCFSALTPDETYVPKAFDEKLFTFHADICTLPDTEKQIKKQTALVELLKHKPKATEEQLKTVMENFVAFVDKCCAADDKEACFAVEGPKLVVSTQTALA

CCOC(=O)C[n+]1cccc(C(=O)NNc2ccccn2)c1.[Br-] [Compound 4, 1-(2-ethoxy-2-oxoethyl)-3-(2-(2-pyridyl)hydrazinocarbonyl)pyridinium bromide]
% Breakage (AGE-BSA; 10 mM test compound): 30%
Relative Free Radical Scavenging Activity (%) on ABTS ([1]; 11.5 μM): 58.2%
Relative Free Radical Scavenging Activity (%) on ABTS ([1]; 23.0 μM): 64.3%
Relative Free Radical Scavenging Activity (%) on ABTS ([1]; 46.0 μM): 69.3%
Relative Free Radical Scavenging Activity (%) on ABTS ([1]; 92.5 μM): 98.6%
Relative Free Radical Scavenging Activity (%) on ABTS ([1]; 925 μM): 100%

Cc1ccc(C(=O)C[n+]2cccc(C(=O)NNS(C)(=O)=O)c2)s1.[Cl-] [Compound 63, 1-(2-(5-methylthien-2-yl)-2-oxoethyl)-3-(methanesulfonyl hydrazinocarbonyl)pyridinium chloride]
% Breakage (AGE-BSA; 10 mM test compound): 25.17%
Relative Free Radical Scavenging Activity (%) on ABTS ([1]; 11.5 μM): 10.75%
Relative Free Radical Scavenging Activity (%) on ABTS ([1]; 23.0 μM): 47.20%
Relative Free Radical Scavenging Activity (%) on ABTS ([1]; 46.0 μM): 88.64%
Relative Free Radical Scavenging Activity (%) on ABTS ([1]; 92.5 μM): 99.18%

O=C(C[n+]1cccc(C(=O)NNc2ccccc2)c1)Nc1ccccc1.[Cl-] [Compound 65, 1-(2-phenylamino-2-oxoethyl)-3-(phenyl hydrazinocarbonyl)pyridinium chloride]
% Breakage (AGE-BSA; 2.5 mM test compound): 68.35%
Relative Free Radical Scavenging Activity (%) on ABTS ([1]; 11.5 μM): 27.67%
Relative Free Radical Scavenging Activity (%) on ABTS ([1]; 23.0 μM): 59.20%
Relative Free Radical Scavenging Activity (%) on ABTS ([1]; 46.0 μM): 94.14%
Relative Free Radical Scavenging Activity (%) on ABTS ([1]; 92.5 μM): 100.00%

Cc1ccc(C(=O)NNS(C)(=O)=O)c[n+]1CC(=O)c1cccs1.[Br-] [Compound 57, 1-(2-thien-2′-yl-2-oxoethyl)-3-(methanesulfonyl hydrazinocarbonyl)-6-methyl pyridinium bromide]
% Breakage (AGE-BSA; 1 mM test compound): 77.69%

O=C(C[n+]1cccc(C(=O)NCCO)c1)Nc1ccccc1.[Cl-] [Compound 95, 1-(2-Phenylamino-2-oxoethyl)-3-((2-hydroxyethyl)aminocarbonyl)-pyridinium chloride]
% Breakage (AGE-BSA; 20 mM test compound): 48%

Cc1ccc(C(=O)C[n+]2cccc(C(=O)NNC(=O)c3ccc[n+](CC(=O)c4ccc(C)s4)c3)c2)s1.[Cl-].[Cl-] [Compound 58, N,N′-bis[3-carbonyl-1-(2-(5-methylthien-2-yl)-2-oxoethyl)pyridinium]hydrazine dichloride]
% Breakage (AGE-BSA; 10 mM test compound): 81.95%

NC(=O)c1ccc[n+](CC(=O)c2cccs2)c1.[Br-] [Compound 85, 3-Carbonylamino-1-(2-thien-2′-yl-2-oxoethyl)-pyridinium bromide]
% Breakage (AGE-BSA; 10 mM test compound): 3%

O=C(C[n+]1cccc(C(=O)NNC(=O)c2ccc[n+](CC(=O)c3ccccc3)c2)c1)c1ccccc1.[Br-].[Br-] [Compound 1, N,N′-bis[3-carbonyl-1-(2-phenyl-2-oxoethyl)-pyridinium]hydrazine dibromide]
% Breakage (AGE-BSA; 5 mM test compound): 13%

O=C(NNC(=O)c1ccc[n+](CC(=O)c2ccc(Cl)s2)c1)c1ccc[n+](CC(=O)c2ccc(Cl)s2)c1.[Cl-].[Cl-] [Compound 62, N,N′-bis[3-carbonyl-1-(2-(5-chlorothien-2-yl)-2-oxoethyl)pyridinium]hydrazine dichloride]
% Breakage (AGE-BSA; 10 mM test compound): 78.41%

CCCCNC(=O)c1ccc[n+](CC(=O)Nc2ccccc2)c1.[Cl-] [Compound 94, 1-(2-Phenylamino-2-oxoethyl)-3-(n-butylaminocarbonyl)pyridinium chloride]
% Breakage (AGE-BSA; 10 mM test compound): 27%

O=C(C[n+]1cccc(C(=O)NCCOC(=O)c2ccccc2)c1)Nc1ccccc1.[Cl-] [Compound 23, 1-(2-phenylamino-2-oxoethyl)-3-((benzoyloxy)ethylaminocarbonyl)pyridinium chloride]
% Breakage (AGE-BSA; 10 mM test compound): 37%
% Breakage (AGE-BSA; 25 mM test compound): 90%

O=C(C[n+]1ccc(C(=O)NCCOC(=O)c2ccccc2)cc1)Nc1ccccc1.[Cl-] [Compound 66, 1-(2-phenylamino-2-oxoethyl)-4-[2-(benzoyloxy)ethylaminocarbonyl]pyridinium chloride]
% Breakage (AGE-BSA; 10 mM test compound): 19.07%

CC(=O)OCCOC(=O)c1ccc[n+](CC(=O)c2ccccc2)c1.[Br-] [Compound 16, 1-(2-phenyl-2-oxoethyl)-3-(2-(acetoxy)ethyloxycarbonyl)pyridinium bromide]
% Breakage (AGE-BSA; 10 mM test compound): 16%

O=C(C[n+]1ccsc1)c1ccccc1.[Br-] [PTB, reference compound]
% Breakage (AGE-BSA; 10 mM test compound): 27%
% Breakage (AGE-BSA; 20 mM test compound): 47%

O=C(NNC(=O)c1ccc[n+](CC(=O)c2ccco2)c1)c1ccc[n+](CC(=O)c2ccco2)c1.[Br-].[Br-] [Compound 32, N,N′-bis[3-carbonyl-1-(2-furan-2′-yl-2-oxoethyl)pyridinium]hydrazine dibromide]
% Breakage (AGE-BSA; 10 mM test compound): 14%

CCOC(=O)C1CSCN1C(=O)C[n+]1cccc(C(=O)NNS(C)(=O)=O)c1.[Cl-] (stereo not shown) [Compound 61, 1-(2-(4-carboethoxy-thiazolidin-3-yl)-2-oxoethyl)-3-(methanesulfonyl hydrazinocarbonyl)pyridinium chloride]
% Breakage (AGE-BSA; 10 mM test compound): 25.06%

CCOC(=O)C[n+]1cccc(C(=O)NCCO)c1.[Br-] [Compound 87, 1-(2-Ethoxy-2-oxoethyl)-3-((2-hydroxyethyl)aminocarbonyl)pyridinium bromide]
% Breakage (AGE-BSA; 10 mM test compound): 43%

COCCNC(=O)c1cc(Br)c[n+](CC(=O)c2cccs2)c1.[Cl-] [Compound 47, 1-(2-thien-2′-yl-2-oxoethyl)-3-((2-methoxyethyl)aminocarbonyl)-5-bromo pyridinium chloride]
% Breakage (AGE-BSA; 10 mM test compound): 32.38%

CCOC(=O)C[n+]1cccc(C(=O)OCCOC(=O)c2ccccc2)c1.[Br-] [Compound 17, 1-(2-ethoxy-2-oxoethyl)-3-(2-(benzoyloxy)ethyloxycarbonyl)pyridinium bromide]
% Breakage (AGE-BSA; 10 mM test compound): 19%

CS(=O)(=O)NNC(=O)c1cc(Br)c[n+](CC(=O)c2cccs2)c1.[Br-] [Compound 53, 1-(2-thien-2′-yl-2-oxoethyl)-3-(methanesulfonyl hydrazinocarbonyl)-5-bromo pyridinium bromide]
% Breakage (AGE-BSA; 2.5 mM test compound): 29.36%

O=C(NNC(=O)c1cccnc1Cl)c1ccc[n+](CC(=O)c2cccs2)c1.[Cl-] [Compound 42, 1-(2-thien-2′yl-2-oxoethyl)-3-(2-(2-chloro-3-pyridoyl)hydrazinocarbonyl)-pyridinium chloride]
% Breakage (AGE-BSA; 10 mM test compound): 12.51%

CCOC(=O)C1CCCN1C(=O)C[n+]1cccc(C(=O)NNC(=O)c2ccc[n+](CC(=O)N3CCCC3C(=O)OCC)c2)c1.[Cl-].[Cl-] (stereo not shown) [Compound 59, N,N′-bis[3-carbonyl-1-(2-(2-ethoxycarbonylpyrrolidin-1-yl)-2-oxoethyl)pyridinium]hydrazine dichloride]
% Breakage (AGE-BSA; 10 mM test compound): 20.31%
